Test in all cases: MIC, microdilution broth method (NCCLS)
Format in all cases: cell-based

For one assay, the system named is S. pneumoniae ATCC49619. The note with it: Streptococcus pneumoniae, read-out: MIC Values, D: S. pneumoniae ATCC49619. The method in brief:
(§1)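 NCCLS M7-A4 broth microdilution: two-fold drug dilutions in cation-adjusted Mueller-Hinton broth, inoculum approximately 5×10^4 CFU/well. Trays incubated at 35 °C for 16-20 hours. MIC read by comparing growth to compound-free growth controls.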

The subject of the next assay is E. faecalis ATCC29212. The note with it: Enterococcus faecalis, read-out: MIC Values, C: E. faecalis ATCC29212. The method, boiled down:
as §1

Another assay relates to E. coli OC2605. As to conditions: Escherichia coli. The method, boiled down:
as §1

The subject of the next assay is H. influenzae ATCC49247. The note with it: Haemophilus influenzae, read-out: MIC Values, E: H. influenzae ATCC49247. The method, boiled down: as §1
A further assay concerns S. aureus ATCC29213. As to conditions: Staphylococcus aureus, read-out: MIC Values, B: S. aureus ATCC29213. The method, boiled down:
as §1

Setting [1] is: Table 1, 6-Carbamoyl-3-Acyl Macrolide Derivatives.
The mark [2] stands for this setting: Table 1, 6-Carbamoyl-3-Acyl Macrolide Derivatives, read-out: MIC Values, A: E. coli OC2605.
The mark [3] stands for this setting: Table 2, 3,6-Dicarbamoyl Macrolide Derivatives.
The mark [4] stands for this setting: Table 2, 3,6-Dicarbamoyl Macrolide Derivatives, read-out: MIC Values, A: E. coil OC2605.

In brackets after ≈: the same amount, converted by molar mass. Read-outs that look alike come from different tables or passages of the source.

On to `CC[C@H]1OC(=O)[C@H](C)[C@@H](OC(=O)Cc2cccnc2)[C@H](C)[C@@H](O[C@@H]2O[C@H](C)C[C@H](N(C)C)[C@H]2O)[C@](C)(OC(=O)NC/C=C/c2cnc(C(F)(F)F)nc2)C[C@@H](C)C(=O)[C@H](C)[C@H]2NC(=O)O[C@@]21C` [Compound 38], for which the MIC is 0.12 mg/L (≈ 0.126 µM) in the assay with S. pneumoniae ATCC49619 (setting [1]); 0.5 mg/L (≈ 0.527 µM) in the assay with E. faecalis ATCC29212 (setting [1]); over 16 mg/L in the assay on E. coli OC2605 (setting [2]); 4 mg/L (≈ 4.21 µM) in the assay on H. influenzae ATCC49247 (setting [1]); 2 mg/L (≈ 2.11 µM) with S. aureus ATCC29213 (setting [1]).

In the case of `CC[C@H]1OC(=O)[C@H](C)[C@@H](OC(=O)N2CCOCC2)[C@H](C)[C@@H](O[C@@H]2O[C@H](C)C[C@H](N(C)C)[C@H]2O)[C@](C)(OC(=O)NC/C=C/c2ccc(-c3ncccn3)cc2)C[C@@H](C)C(=O)[C@H](C)[C@H]2NC(=O)O[C@@]21C` [Compound 63], the MIC in the assay with S. pneumoniae ATCC49619 (setting [3]) is 0.06 mg/L (≈ 0.0631 µM); in the assay with E. faecalis ATCC29212 (setting [3]), 0.5 mg/L (≈ 0.526 µM); in the assay on E. coli OC2605 (setting [4]), over 16 mg/L; in the assay on H. influenzae ATCC49247 (setting [3]), 4 mg/L (≈ 4.21 µM); with S. aureus ATCC29213 (setting [3]) it was 0.5 mg/L (≈ 0.526 µM).

As to `CC[C@H]1OC(=O)[C@H](C)[C@@H](OC(=O)C(C)C)[C@H](C)[C@@H](O[C@@H]2O[C@H](C)C[C@H](N(C)C)[C@H]2O)[C@](C)(OC(=O)NC/C=C/C=C/c2ccccn2)C[C@@H](C)C(=O)[C@H](C)[C@H]2NC(=O)O[C@@]21C` [Compound 26], the MIC in the assay with S. pneumoniae ATCC49619 (setting [1]) was 0.06 mg/L (≈ 0.07 µM); in the assay with E. faecalis ATCC29212 (setting [1]), 0.25 mg/L (≈ 0.292 µM); in the assay on E. coli OC2605 (setting [2]) it was 16 mg/L (≈ 18.7 µM); with H. influenzae ATCC49247 (setting [1]) it was 2 mg/L (≈ 2.33 µM); with S. aureus ATCC29213 (setting [1]), 1 mg/L (≈ 1.17 µM).

For `CC[C@H]1OC(=O)[C@H](C)[C@@H](OC(=O)N(CC)CC)[C@H](C)[C@@H](O[C@@H]2O[C@H](C)C[C@H](N(C)C)[C@H]2O)[C@](C)(OC(=O)NC/C=C/c2cnc3ccccc3c2)C[C@@H](C)C(=O)[C@H](C)[C@H]2NC(=O)O[C@@]21C` [Compound 59], the MIC in the assay on S. pneumoniae ATCC49619 (setting [3]) stood at 0.06 mg/L (≈ 0.0659 µM); in the assay on E. faecalis ATCC29212 (setting [3]), 0.25 mg/L (≈ 0.275 µM); in the assay on E. coli OC2605 (setting [4]), 16 mg/L (≈ 17.6 µM); in the assay on H. influenzae ATCC49247 (setting [3]), 4 mg/L (≈ 4.4 µM); in the assay on S. aureus ATCC29213 (setting [3]), 0.5 mg/L (≈ 0.549 µM).

On to `CC[C@H]1OC(=O)[C@H](C)[C@@H](OC(=O)C(C)C)[C@H](C)[C@@H](O[C@@H]2O[C@H](C)C[C@H](N(C)C)[C@H]2O)[C@](C)(OC(=O)NC/C=C/c2ccc(-c3ncccn3)cc2)C[C@@H](C)C(=O)[C@H](C)[C@H]2NC(=O)O[C@@]21C` [Compound 1, Propanoic acid, 2-methyl-, (3aS,4R,7R,8S,9S,10R, 11R,13R,15R,15aR)-4-ethyltetradecahydro-3a,7,9,11,13,15-hexamethyl-2,6,14-trioxo-11-[[[[(2E)-3-[4-(2-pyrimidinyl)phenyl]-2-propenyl]amino]carbonyl]oxy]-10-[[3,4,6-trideoxy-3-(dimethylamino)-β-D-xylo-hexopyranosyl]oxy]-2H-oxacyclotetradecino[4,3-d]oxazol-8-yl ester], for which the MIC in the assay with S. pneumoniae ATCC49619 (setting [1]) amounted to 0.06 mg/L (≈ 0.0661 µM); in the assay with E. faecalis ATCC29212 (setting [1]), 0.25 mg/L (≈ 0.275 µM); in the assay on E. coli OC2605 (setting [2]), 16 mg/L (≈ 17.6 µM); with H. influenzae ATCC49247 (setting [1]), 1 mg/L (≈ 1.1 µM); in the assay on S. aureus ATCC29213 (setting [1]), 0.5 mg/L (≈ 0.551 µM).

Regarding `CCC(=O)O[C@H]1[C@H](C)[C@@H](O[C@@H]2O[C@H](C)C[C@H](N(C)C)[C@H]2O)[C@](C)(OC(=O)NC/C=C/c2ccc(-c3ncccn3)cc2)C[C@@H](C)C(=O)[C@H](C)[C@H]2NC(=O)O[C@]2(C)[C@@H](CC)OC(=O)[C@@H]1C` [Compound 14], the MIC with S. pneumoniae ATCC49619 (setting [1]) was determined as 0.06 mg/L (≈ 0.0671 µM); with E. faecalis ATCC29212 (setting [1]), 0.25 mg/L (≈ 0.28 µM); with E. coli OC2605 (setting [2]) it was 16 mg/L (≈ 17.9 µM); with H. influenzae ATCC49247 (setting [1]) it was 4 mg/L (≈ 4.47 µM); in the assay with S. aureus ATCC29213 (setting [1]) it was 0.25 mg/L (≈ 0.28 µM).

On to `CC[C@H]1OC(=O)[C@H](C)[C@@H](OC(=O)N2CCCCC2)[C@H](C)[C@@H](O[C@@H]2O[C@H](C)C[C@H](N(C)C)[C@H]2O)[C@](C)(OC(=O)NC/C=C/c2ccc(-c3ncccn3)cc2)C[C@@H](C)C(=O)[C@H](C)[C@H]2NC(=O)O[C@@]21C` [Compound 64], for which the MIC in the assay on S. pneumoniae ATCC49619 (setting [3]) was 0.06 mg/L (≈ 0.0632 µM); with E. faecalis ATCC29212 (setting [3]) it was 0.5 mg/L (≈ 0.527 µM); with E. coli OC2605 (setting [4]), over 16 mg/L; in the assay with H. influenzae ATCC49247 (setting [3]), 8 mg/L (≈ 8.43 µM); in the assay with S. aureus ATCC29213 (setting [3]), 1 mg/L (≈ 1.05 µM).

Regarding `CC[C@H]1OC(=O)[C@H](C)[C@@H](OC(=O)Cc2ccccn2)[C@H](C)[C@@H](O[C@@H]2O[C@H](C)C[C@H](N(C)C)[C@H]2O)[C@](C)(OC(=O)NC/C=C/C=C/c2cccnc2)C[C@@H](C)C(=O)[C@H](C)[C@H]2NC(=O)O[C@@]21C` [Compound 25, 2-Pyridineacetic acid, (3aS,4R,7R,8S,9S,10R, 11R,13R,15R,15aR)-4-ethyltetradecahydro-3a,7,9,11,13,15-hexamethyl-2,6,14-trioxo-11-[[[[(2E,4E)-5-(3-pyridinyl)-2,4-pentadienyl]amino]carbonyl]oxy]-10-[[3,4,6-trideoxy-3-(dimethylamino)-β-D-xylo-hexopyranosyl]oxy]-2H-oxacyclotetradecino[4,3-d]oxazol-8-yl ester], the MIC is 0.03 mg/L (≈ 0.0331 µM) in the assay with S. pneumoniae ATCC49619 (setting [1]); 0.25 mg/L (≈ 0.276 µM) in the assay on E. faecalis ATCC29212 (setting [1]); 8 mg/L (≈ 8.83 µM) in the assay on E. coli OC2605 (setting [2]); 2 mg/L (≈ 2.21 µM) in the assay on H. influenzae ATCC49247 (setting [1]); 0.5 mg/L (≈ 0.552 µM) with S. aureus ATCC29213 (setting [1]).

These data come from patent US6825172B2, “3-descladinosyl-6-O-carbamoyl and 6-O-carbonoyl macrolide antibacterial agents” (Janssen Pharmaceutica, NV, priority 2002, dated 2004).
